# From ChEMBL document CHEMBL1201862, “PubChem BioAssay data set” (2004)
# Activity calls are given as the source filed them.
# Assays:
# [1] = biological target: T1, Dual specificity protein phosphatase 3 (Homo sapiens, UniProt P51452); assay: VHR phosphatase inhibition, dose response, selectivity assay for STEP inhibitor project, biochemical (AID 602374); format: functional; details: read-out: IC50_Mean
# [2] = biological target: T2, Tyrosine-protein phosphatase non-receptor type 22 (Homo sapiens, UniProt Q9Y2R2); format: functional
# T2 sequence (Q9Y2R2 whole entry): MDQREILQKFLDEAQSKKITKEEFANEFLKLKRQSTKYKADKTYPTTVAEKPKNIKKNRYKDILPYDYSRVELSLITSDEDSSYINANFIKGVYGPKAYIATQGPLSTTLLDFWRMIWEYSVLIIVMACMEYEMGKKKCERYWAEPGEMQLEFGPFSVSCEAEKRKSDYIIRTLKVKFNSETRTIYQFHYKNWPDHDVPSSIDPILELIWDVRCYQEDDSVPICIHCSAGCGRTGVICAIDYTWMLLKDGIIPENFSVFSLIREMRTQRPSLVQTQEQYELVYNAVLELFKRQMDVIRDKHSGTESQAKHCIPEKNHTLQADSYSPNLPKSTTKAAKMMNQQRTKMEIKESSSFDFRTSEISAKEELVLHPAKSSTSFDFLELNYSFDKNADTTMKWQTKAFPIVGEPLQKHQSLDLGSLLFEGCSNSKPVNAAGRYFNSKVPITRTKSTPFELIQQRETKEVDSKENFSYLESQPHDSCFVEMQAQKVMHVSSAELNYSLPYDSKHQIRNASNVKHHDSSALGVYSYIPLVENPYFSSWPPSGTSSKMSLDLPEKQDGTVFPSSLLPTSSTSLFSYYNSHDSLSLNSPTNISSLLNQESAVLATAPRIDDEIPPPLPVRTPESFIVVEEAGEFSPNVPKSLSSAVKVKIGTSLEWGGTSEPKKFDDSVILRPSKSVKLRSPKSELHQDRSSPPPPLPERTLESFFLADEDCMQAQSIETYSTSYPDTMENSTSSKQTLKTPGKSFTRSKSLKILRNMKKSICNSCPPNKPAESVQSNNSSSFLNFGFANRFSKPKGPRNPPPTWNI
# [3] = biological target: 26S proteasome non-ATPase regulatory subunit 14 (Homo sapiens, UniProt O00487); assay: inhibition of proteasome subunit RPN11 – biochemical, fluorescence polarization, uHTS hits, confirmation (AID 602368); format: functional
# Chain of 26S proteasome non-ATPase regulatory subunit 14 (O00487 whole entry): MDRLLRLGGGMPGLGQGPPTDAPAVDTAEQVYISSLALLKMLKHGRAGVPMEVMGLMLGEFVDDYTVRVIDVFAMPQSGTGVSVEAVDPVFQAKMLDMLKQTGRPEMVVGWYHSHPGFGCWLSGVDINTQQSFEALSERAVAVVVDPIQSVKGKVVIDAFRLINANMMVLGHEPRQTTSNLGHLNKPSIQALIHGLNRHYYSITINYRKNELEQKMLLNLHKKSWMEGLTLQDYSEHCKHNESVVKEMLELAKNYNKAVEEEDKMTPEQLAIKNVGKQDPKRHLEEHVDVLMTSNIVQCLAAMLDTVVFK
# [4] = biological target: T2, Tyrosine-protein phosphatase non-receptor type 22; assay: PTPN22 phosphatase inhibition, dose response, selectivity assay for STEP inhibitor project, biochemical (AID 624241); format: functional
# [5] = biological target: T1, Dual specificity protein phosphatase 3; assay: SAR VHR1 absorbance Assay for In Vitro dose response studies. [Related pubchem assays (depositor defined):AID1654, AID1661, AID1878, AID1992, AID2004]
# [6] = biological target: T2, Tyrosine-protein phosphatase non-receptor type 22; assay: inhibitors of LYP phosphatase, biochemical, fluorescence intensity, uHTS (AID 1779)
# [7] = biological target: T2, Tyrosine-protein phosphatase non-receptor type 22; assay: LYP1 Fluorescent Assay using OMFP substrate for In Vitro dose response studies. [Related pubchem assays (depositor defined):AID1779, AID1784, AID435024]
# [8] = biological target: T3, Dual specificity protein phosphatase 6 (Rattus norvegicus, UniProt Q64346); format: functional;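 further: confirmatory in vitro dose-response testing of MKP-3 inhibition; recombinant His-tagged MKP-3 made in E. coli BL21 with OMFP substrate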
# T3 sequence (Q64346 whole entry): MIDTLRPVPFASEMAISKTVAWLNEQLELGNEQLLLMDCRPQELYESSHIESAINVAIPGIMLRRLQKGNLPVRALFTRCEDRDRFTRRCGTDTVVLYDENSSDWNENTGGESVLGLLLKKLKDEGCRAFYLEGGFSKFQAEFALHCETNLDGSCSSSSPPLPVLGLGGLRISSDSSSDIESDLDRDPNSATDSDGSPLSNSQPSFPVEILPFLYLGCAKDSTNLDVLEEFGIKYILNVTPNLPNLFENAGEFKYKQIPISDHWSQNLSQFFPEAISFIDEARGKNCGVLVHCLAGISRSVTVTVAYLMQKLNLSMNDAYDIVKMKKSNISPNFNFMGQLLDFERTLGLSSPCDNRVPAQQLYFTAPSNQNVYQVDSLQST
# [9] = biological target: T4, Serine/threonine-protein phosphatase (Homo sapiens, UniProt Q9BPW0); assay: PP5 phosphatase inhibitors, dose response, biochemical, fluorescence (AID 2395)
# T4 sequence (Q9BPW0 whole entry): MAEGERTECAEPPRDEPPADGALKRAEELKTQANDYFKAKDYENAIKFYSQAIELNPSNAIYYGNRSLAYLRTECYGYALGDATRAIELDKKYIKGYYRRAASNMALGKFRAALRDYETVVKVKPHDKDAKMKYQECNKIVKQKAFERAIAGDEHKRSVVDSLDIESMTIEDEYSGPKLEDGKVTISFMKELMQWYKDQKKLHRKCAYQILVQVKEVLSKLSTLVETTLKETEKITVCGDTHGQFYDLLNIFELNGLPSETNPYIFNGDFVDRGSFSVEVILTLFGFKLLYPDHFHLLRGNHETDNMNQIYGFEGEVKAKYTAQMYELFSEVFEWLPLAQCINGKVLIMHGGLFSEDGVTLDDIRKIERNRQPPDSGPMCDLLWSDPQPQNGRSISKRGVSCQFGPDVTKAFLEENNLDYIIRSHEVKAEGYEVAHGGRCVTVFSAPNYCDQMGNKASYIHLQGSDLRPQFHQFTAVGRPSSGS
# [10] = biological target: Serine/threonine-protein phosphatase PP1-alpha catalytic subunit (Homo sapiens, UniProt P62136); assay: PP1 phosphatase inhibitors, dose response, biochemical, fluorescence (AID 2394)
# Chain of Serine/threonine-protein phosphatase PP1-alpha catalytic subunit (P62136 whole entry): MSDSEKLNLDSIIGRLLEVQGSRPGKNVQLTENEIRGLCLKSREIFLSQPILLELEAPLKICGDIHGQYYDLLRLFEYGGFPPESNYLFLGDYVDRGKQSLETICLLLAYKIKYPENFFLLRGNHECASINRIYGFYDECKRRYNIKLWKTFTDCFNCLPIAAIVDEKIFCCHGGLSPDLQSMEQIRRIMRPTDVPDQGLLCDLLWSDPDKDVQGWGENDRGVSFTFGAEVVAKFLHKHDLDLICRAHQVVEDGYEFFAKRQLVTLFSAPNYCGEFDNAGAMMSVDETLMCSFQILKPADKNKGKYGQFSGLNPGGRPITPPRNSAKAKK
# T1 sequence (P51452 whole entry): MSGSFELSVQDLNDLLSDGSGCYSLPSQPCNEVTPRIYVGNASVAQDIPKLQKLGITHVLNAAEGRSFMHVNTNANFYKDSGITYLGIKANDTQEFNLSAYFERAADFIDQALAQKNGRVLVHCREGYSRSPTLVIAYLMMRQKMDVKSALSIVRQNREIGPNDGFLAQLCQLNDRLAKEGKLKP
Compound,IC50 [1],IC50 [2],IC50 [3],IC50 [4],IC50 [5],IC50 [6],IC50 [7],IC50 [8],IC50 [9],IC50 [10]
CCOC(=O)c1sc2nc3c(SCC(=O)O)cc(C(=O)c4ccccc4O)cn3c(=O)c2c1C,0.549 µM (active),< 1.24 µM (active),6.79 µM (active),1.16 µM (active),1.24 µM (active),> 99 µM (inactive),> 99 µM (inactive),57.3 µM (active),,
C=CCn1c(NC(=O)c2ccccc2Cl)c(C#N)c2nc3ccccc3nc21,,,,,,,,,> 7.45 µM (active),43.6 µM (not active)
